Test results as given in patent EP4603105A1, “PHARMACEUTICAL COMPOSITION CONTAINING CYCLIC COMPOUND HAVING SELECTIVE KRAS INHIBITORY EFFECT AGAINST HRAS AND NRAS” (CHUGAI SEIYAKU KABUSHIKI KAISHA, priority 2022, dated 2024).

Legend:
[1] = molecular target: GDP-bound NRAS wild-type protein (Homo sapiens, UniProt P01111); experiment: Binding to NRAS by surface plasmon resonance (SPR), KD and KD ratio to KRAS
Procedure, shortened: (§1)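 Measured at 30°C: SPR with GDP-loaded, E. coli-expressed biotin-Avi RAS captured (~100–300 RU), ascending 75 s compound injections, HBS pH 7.4 with GDP, MgCl2, 4% DMSO. KD from 1:1 fit.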

[2] = test system: human lung cancer strain NCI-H441; format: cell-based
Procedure, shortened: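 Signal came from […] measured per well once the reagent was added. Beforehand, cells were cultured at 37°C and 5% carbon dioxide on a compound series serially diluted in dimethyl sulfoxide.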

[3] = molecular target: HRAS wild-type protein (Homo sapiens, UniProt P01112); experiment: Binding to HRAS by surface plasmon resonance (SPR), KD and KD ratio to KRAS
Procedure, shortened: as §1

[4] = molecular target: GDP-bound KRAS wild-type protein (Homo sapiens, UniProt P01116); experiment: Binding to KRAS by surface plasmon resonance (SPR), dissociation constant KD; conditions: 1:1 binding model
Procedure, shortened: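 SPR, 30°C: Avi-biotin RAS·GDP captured via Biotin CAPture (~100–300 RU); running buffer HBS pH 7.4, 1 mM DTT, 10 mM MgCl2, 0.01% Tween 20, 10 µM GDP, 4% DMSO. Single-cycle kinetics, 100 µL/min, 75 s injections; 1:1 model → KD.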

[5] = ratio of the KD value with respect to GDP-bound NRAS wild-type protein to the KD value with respect to KRAS
[6] = ratio of the KD value with respect to HRAS wild-type protein to the KD value with respect to KRAS
[7] = ratio of KD for GDP-bound NRAS wild-type protein to KD for KRAS
[8] = ratio of KD for HRAS wild-type protein to KD for KRAS

GDP-bound NRAS wild-type protein, sequence (P01111 whole entry): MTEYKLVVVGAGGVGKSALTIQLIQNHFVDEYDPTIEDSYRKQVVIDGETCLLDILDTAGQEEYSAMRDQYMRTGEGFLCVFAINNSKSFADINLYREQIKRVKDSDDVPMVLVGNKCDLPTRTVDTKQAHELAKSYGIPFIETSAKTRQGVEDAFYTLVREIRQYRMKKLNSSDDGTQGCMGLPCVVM
HRAS wild-type protein, sequence (P01112 whole entry): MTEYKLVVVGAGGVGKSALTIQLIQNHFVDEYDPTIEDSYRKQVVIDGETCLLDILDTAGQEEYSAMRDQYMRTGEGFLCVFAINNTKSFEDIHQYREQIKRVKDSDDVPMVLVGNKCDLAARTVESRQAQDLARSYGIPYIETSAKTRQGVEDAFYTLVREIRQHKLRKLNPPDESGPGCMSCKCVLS
GDP-bound KRAS wild-type protein, sequence (P01116 1-188 isoform P01116-2): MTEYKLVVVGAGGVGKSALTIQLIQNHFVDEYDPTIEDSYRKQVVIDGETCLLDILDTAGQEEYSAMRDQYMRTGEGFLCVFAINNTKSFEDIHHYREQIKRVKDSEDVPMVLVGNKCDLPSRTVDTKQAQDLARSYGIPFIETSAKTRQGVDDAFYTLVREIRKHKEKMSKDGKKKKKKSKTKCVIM

Row | Structure (SMILES) | NRAS /KRAS [1, 5] | IC50 [2] | HRAS /KRAS [3, 6] | Kd ([4]; Single Cycle Kinetics) | NRAS /KRAS [1, 7] | HRAS /KRAS [3, 8] | Kd [4]
1 | CCC[C@H]1C(=O)N[C@@H]([C@@H](C)CC)C(=O)N(C2CC2)CC(=O)N(C)[C@H]2C/C=C\CCN(C2=O)[C@@H](CC2CCCCC2)C(=O)N(C)CC(=O)N[C@@H](CCc2ccc(C(F)(F)F)c(OC)c2)C(=O)N2C[C@H](OCC)C[C@H]2C(=O)N(C)C2(CCC2)C(=O)N(C)[C@@H](C(CC)CC)C(=O)N(C)[C@H](C(=O)N(C)C)CC(=O)N1C [PP2337] | A (a compound having 10 or more and less than 20 is denoted as A) | 33.9 nM | A (a compound having 10 or more and less than 20 is denoted as A) | 32 nM |  |  | 
2 | CCC[C@H]1C(=O)N[C@@H]([C@@H](C)CC)C(=O)N(C2CC2)CC(=O)N(C)[C@H]2C/C=C\CCN(C2=O)[C@@H](CC2CCCCC2)C(=O)N(C)CC(=O)N[C@@H](CCc2ccc(C(F)(F)F)c(OC)c2)C(=O)N2C[C@H](OCC)C[C@H]2C(=O)N(C)C2(CCC2)C(=O)N(C)[C@@H](C2CCCC2)C(=O)N(C)[C@H](C(=O)N(C)C)CC(=O)N1C [PP2340] | B (a compound having 3 or more and less than 10 is denoted as B) | 44.9 nM | B (a compound having 3 or more and less than 10 is denoted as B) | 1.1 nM |  |  | 
3 | CCOC[C@H]1C(=O)N[C@@H]([C@@H](C)CC)C(=O)N(C2CC2)CC(=O)N(C)[C@H]2C/C=C\CCN(C2=O)[C@@H](CC2CCCCC2)C(=O)N(C)CC(=O)N[C@@H](CCc2ccc(C(F)(F)F)c(OC)c2)C(=O)N2C[C@H](OCC)C[C@H]2C(=O)N(C)C2(CCC2)C(=O)N(C)[C@@H](C2CCCC2)C(=O)N(C)[C@H](C(=O)N(C)C)CC(=O)N1C [PP2342] | A (a compound having 10 or more and less than 20 is denoted as A) | 70.3 nM | A (a compound having 10 or more and less than 20 is denoted as A) | 0.55 nM |  |  | 
4 | CCOC[C@H]1C(=O)N[C@@H]([C@@H](C)CC)C(=O)N(C2CC2)CC(=O)N(C)[C@H]2C/C=C\CCN(C2=O)[C@@H](CC2CCC(F)(F)CC2)C(=O)N(C)CC(=O)N[C@@H](CCc2ccc(C(F)(F)F)c(OC)c2)C(=O)N2C[C@H](OCC)C[C@H]2C(=O)N(C)C2(CCC2)C(=O)N(C)[C@@H](C(CC)CC)C(=O)N(C)[C@H](C(=O)N(C)C)CC(=O)N1C [PP2351] | A (a compound having 10 or more and less than 20 is denoted as A) | 177 nM | A (a compound having 10 or more and less than 20 is denoted as A) | 3.2 nM |  |  | 
5 | CCCOC[C@H]1C(=O)N[C@@H]([C@@H](C)CC)C(=O)N(C2CC2)CC(=O)N(C)[C@H]2C/C=C\CCN(C2=O)[C@@H](CC2CCC(F)(F)CC2)C(=O)N(C)CC(=O)N[C@@H](CCc2ccc(C(F)(F)F)c(OC)c2)C(=O)N2C[C@H](OCC)C[C@H]2C(=O)N(C)C2(CCC2)C(=O)N(C)[C@@H](C2CCCC2)C(=O)N(C)[C@H](C(=O)N(C)C)CC(=O)N1C [PP2354] | A (a compound having 10 or more and less than 20 is denoted as A) | 9.3 nM | A (a compound having 10 or more and less than 20 is denoted as A) | 0.79 nM |  |  | 
6 | CCO[C@@H]1C[C@H]2C(=O)NC3(CC(C)(C)C3)C(=O)N(C)[C@@H](C(CC)CC)C(=O)N(C)[C@H](C(=O)N(C)C)CC(=O)N(C)[C@H]3CC/C=C/c4ccc(cc4)C[C@@H](C(=O)N(C)CC(=O)N[C@@H](CCc4cc(F)c(C(F)(F)F)c(F)c4)C(=O)N2C1)N1CC/C=C\C[C@@H](C1=O)N(C)C(=O)CN(C)C(=O)[C@H]([C@@H](C)CC)NC3=O [PP2586] |  | 14.4 nM |  |  | A (a compound having 10 or more and less than 20 is denoted as A) | B (a compound having 3 or more and less than 10 is denoted as B) | 0.17 nM
7 | CCO[C@@H]1C[C@H]2C(=O)NC3(CC(C)(C)C3)C(=O)N(C)[C@@H](C(CC)CC)C(=O)N(C)[C@H](C(=O)N(C)C)CC(=O)N(C)[C@H]3CC/C=C/c4ccc(cc4)C[C@@H](C(=O)N(C)CC(=O)N[C@@H](CCc4ccc(Cl)c(Cl)c4)C(=O)N2C1)N1CC/C=C\C[C@@H](C1=O)N(C)C(=O)CN(C)C(=O)[C@H]([C@@H](C)CC)NC3=O [PP2589] |  | 74.1 nM |  |  | AA (a compound having 20 or more is denoted as AA) | A (a compound having 10 or more and less than 20 is denoted as A) | 0.45 nM
8 | CCO[C@@H]1C[C@H]2C(=O)NC3(CC(C)(C)C3)C(=O)N(C)[C@@H](C3CCCC3)C(=O)N(C)[C@H](C(=O)N(C)CC)CC(=O)N(C)[C@H]3CC/C=C/c4ccc(cc4)C[C@@H](C(=O)N(C)CC(=O)N[C@@H](CCc4ccc(Cl)c(Cl)c4)C(=O)N2C1)N1CC/C=C\C[C@@H](C1=O)N(C)C(=O)CN(C1CC1)C(=O)[C@H]([C@@H](C)CC)NC3=O [PP2598] |  | 23 nM |  |  | A (a compound having 10 or more and less than 20 is denoted as A) | A (a compound having 10 or more and less than 20 is denoted as A) | 1.9 nM
9 | CCO[C@@H]1C[C@H]2C(=O)NC3(CCC3)C(=O)N(C)[C@@H](C(CC)CC)C(=O)N(C)[C@H](C(=O)N(C)C)CC(=O)N(C)[C@H]3CCCC/C=C/c4ccc(cc4)C[C@@H](C(=O)N(C)CC(=O)N[C@@H](CCc4ccc(Cl)c(Cl)c4)C(=O)N2C1)N1CC/C=C\C[C@@H](C1=O)N(C)C(=O)CN(C1CC1)C(=O)[C@H]([C@@H](C)CC)NC3=O [PP2605] |  | 8.7 nM |  |  | AA (a compound having 20 or more is denoted as AA) | A (a compound having 10 or more and less than 20 is denoted as A) | 0.34 nM
10 | CCO[C@@H]1C[C@H]2C(=O)NC3(CCC3)C(=O)N(C)[C@@H](C3CCCC3)C(=O)N(C)[C@H](C(=O)N(C)C)CC(=O)N(C)[C@@H](CC3CCCC3)C(=O)N[C@@H]([C@@H](C)CC)C(=O)N(C)CC(=O)N(C)[C@H]3C/C=C\CCN(C3=O)[C@@H](Cc3ccc(C)cc3)C(=O)N(C)CC(=O)N[C@@H](CCc3ccc(C(F)(F)F)c(C4CC4)c3)C(=O)N2C1 [PP2681] |  | 29.1 nM |  |  | A (a compound having 10 or more and less than 20 is denoted as A) | A (a compound having 10 or more and less than 20 is denoted as A) | 0.37 nM
11 | CCO[C@@H]1C[C@H]2C(=O)NC3(CCC3)C(=O)N(C)[C@@H](C3CCCC3)C(=O)N(C)[C@H](C(=O)N(C)C)CC(=O)N(C)[C@@H](CC3CCCC3)C(=O)N[C@@H]([C@@H](C)CC)C(=O)N(C)CC(=O)N(C)[C@H]3C/C=C\CCN(C3=O)[C@@H](Cc3ccc(C)cc3)C(=O)N(C)CC(=O)N[C@@H](CCc3ccc(C4CC4)c(Cl)c3)C(=O)N2C1 [PP2684] |  | 57.9 nM |  |  | A (a compound having 10 or more and less than 20 is denoted as A) | A (a compound having 10 or more and less than 20 is denoted as A) | 0.43 nM
12 | CCO[C@@H]1C[C@H]2C(=O)NC3(CCC3)C(=O)N(C)[C@@H](C3CCCC3)C(=O)N(C)[C@H](C(=O)N(C)C)CC(=O)N(C)[C@@H](CC3CCCC3)C(=O)N[C@@H]([C@@H](C)CC)C(=O)N(C)CC(=O)N(C)[C@H]3C/C=C\CCN(C3=O)[C@@H](Cc3ccc(C)cc3)C(=O)N(C)CC(=O)N[C@@H](CCc3ccc(CC)c(F)c3)C(=O)N2C1 [PP2686] |  | 162 nM |  |  | A (a compound having 10 or more and less than 20 is denoted as A) | A (a compound having 10 or more and less than 20 is denoted as A) | 3.3 nM
